Test results as given in patent publication US11897862B2 (Gilead Sciences, Inc., priority 2022, dated 2024).

Key:
Type in all cases: cell-based
IKZF1 = biological target: T1, IKZF1 (Homo sapiens, UniProt Q13422+Q96SW2); assay: HEK293 HiBiT in vitro degradation of IKZF1; details: for Dmax: HEK293, HEK293 HiBiT; for Dmax / IKZF1 Dmax: maximum degradation at the highest concentration tested; for DC50 / IKZF1 Dmax: HEK293 HiBiT; for DC50: 18-24 hr incubation, normalized to DMSO control, read-out: IKZF1 EC50
T1 construct: expressed in transfected cells
T1 sequence (Q13422 whole entry): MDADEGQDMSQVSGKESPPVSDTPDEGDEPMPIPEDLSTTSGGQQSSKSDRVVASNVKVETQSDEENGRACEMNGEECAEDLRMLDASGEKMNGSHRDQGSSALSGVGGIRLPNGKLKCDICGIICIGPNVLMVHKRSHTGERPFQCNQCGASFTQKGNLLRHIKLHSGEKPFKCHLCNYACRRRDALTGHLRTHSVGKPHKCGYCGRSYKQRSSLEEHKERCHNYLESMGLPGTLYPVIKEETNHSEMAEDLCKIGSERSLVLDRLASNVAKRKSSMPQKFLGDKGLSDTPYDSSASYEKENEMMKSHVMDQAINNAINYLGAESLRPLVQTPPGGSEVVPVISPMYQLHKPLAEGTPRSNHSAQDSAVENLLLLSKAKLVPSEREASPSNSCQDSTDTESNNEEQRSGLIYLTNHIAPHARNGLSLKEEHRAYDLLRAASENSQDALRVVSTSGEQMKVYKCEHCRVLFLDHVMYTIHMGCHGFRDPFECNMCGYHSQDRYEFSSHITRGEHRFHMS
T1 sequence (Q96SW2 whole entry): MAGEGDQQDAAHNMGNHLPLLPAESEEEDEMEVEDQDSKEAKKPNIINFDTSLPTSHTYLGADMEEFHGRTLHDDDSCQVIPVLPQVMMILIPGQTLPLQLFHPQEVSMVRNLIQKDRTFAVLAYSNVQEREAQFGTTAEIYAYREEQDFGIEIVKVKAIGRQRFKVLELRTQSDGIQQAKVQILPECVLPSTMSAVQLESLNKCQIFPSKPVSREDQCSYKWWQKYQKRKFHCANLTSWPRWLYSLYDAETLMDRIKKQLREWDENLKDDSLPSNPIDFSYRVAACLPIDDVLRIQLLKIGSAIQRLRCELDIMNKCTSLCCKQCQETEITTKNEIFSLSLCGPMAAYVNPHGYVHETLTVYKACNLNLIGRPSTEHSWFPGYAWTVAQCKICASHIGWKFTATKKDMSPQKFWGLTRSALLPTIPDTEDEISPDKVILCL
T1 sequence (Q16531 whole entry partner): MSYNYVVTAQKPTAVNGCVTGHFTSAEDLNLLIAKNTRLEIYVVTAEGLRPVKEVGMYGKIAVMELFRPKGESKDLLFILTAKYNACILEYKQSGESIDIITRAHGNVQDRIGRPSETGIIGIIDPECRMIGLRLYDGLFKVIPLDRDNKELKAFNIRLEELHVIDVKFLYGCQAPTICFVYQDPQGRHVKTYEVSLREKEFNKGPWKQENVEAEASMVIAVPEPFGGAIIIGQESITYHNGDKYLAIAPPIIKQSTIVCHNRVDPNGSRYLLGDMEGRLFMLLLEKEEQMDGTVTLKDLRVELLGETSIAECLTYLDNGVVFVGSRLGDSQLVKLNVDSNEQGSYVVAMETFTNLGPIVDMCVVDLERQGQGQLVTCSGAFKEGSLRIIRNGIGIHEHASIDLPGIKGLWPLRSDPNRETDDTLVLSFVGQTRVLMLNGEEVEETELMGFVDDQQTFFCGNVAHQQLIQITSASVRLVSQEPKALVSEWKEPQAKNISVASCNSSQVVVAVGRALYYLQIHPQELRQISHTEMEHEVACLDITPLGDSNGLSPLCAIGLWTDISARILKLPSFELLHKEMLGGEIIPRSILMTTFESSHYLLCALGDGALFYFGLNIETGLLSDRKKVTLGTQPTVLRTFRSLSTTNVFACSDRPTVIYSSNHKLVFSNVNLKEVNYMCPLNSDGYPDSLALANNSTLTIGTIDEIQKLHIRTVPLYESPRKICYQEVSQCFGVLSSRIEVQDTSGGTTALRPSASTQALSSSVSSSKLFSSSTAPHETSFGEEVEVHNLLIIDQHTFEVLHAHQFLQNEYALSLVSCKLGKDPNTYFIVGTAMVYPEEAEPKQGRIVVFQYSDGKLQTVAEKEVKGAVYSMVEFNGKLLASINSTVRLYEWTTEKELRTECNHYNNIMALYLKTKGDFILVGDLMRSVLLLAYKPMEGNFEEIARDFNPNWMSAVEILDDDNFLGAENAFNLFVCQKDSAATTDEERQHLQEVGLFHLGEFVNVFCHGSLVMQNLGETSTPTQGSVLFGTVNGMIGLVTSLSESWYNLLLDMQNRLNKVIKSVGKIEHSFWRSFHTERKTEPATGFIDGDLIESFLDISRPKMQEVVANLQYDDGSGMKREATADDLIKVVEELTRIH
In short: (§1)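 Stable HEK293 reporter pools, each with one integrated tet-inducible copy of a HiBiT-tagged target, were induced with doxycycline overnight at 37 °C. After 18-24 h with compound dilution series, Nano-Glo lysis and luminescence yielded EC50 and Dmax values.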

IKZF2 [1] = biological target: T2, IKZF2 (Homo sapiens, UniProt Q96SW2+Q9UKS7); assay: Human whole blood IKZF2 degradation (flow cytometry, CD4/CD25/Foxp3+ Treg cells); set-up: endogenous in cells; details: 24 hrs incubation, IKZF2 MFI in CD4/CD25/Foxp3+ Treg cells, flow cytometry; for DC50: read-out: IKZF2 EC50
Method: In vitro IKZF2 potency was assessed in human whole blood using a fluorescence activated cell sorting assay. 50 μL of freshly collected blood from healthy human volunteers was incubated with Immunocult CD3/CD28 activator (Stemcell Technologies) and solution of testing compounds (serially-diluted) for 24 hrs hours at 37° C. in 384 well plates. The treated red blood cells were removed by adding lysis buffer (BD cat #558049) then the cells were fixed, permeabilized, and stained with anti-CD4 (BD cat #564419), anti-Foxp3 (Invitrogen cat #48-4777-42), anti-IKZF1 (Cell Signaling Tech. cat #33462S), and anti-IKZF2(Cell Signaling Tech. cat #65432S) antibodies. The median fluorescent intensity (MFI) of IKZF2 signal from CD4/CD25/Foxp3+ Treg cells and MFI of IKZF1 signal from CD4+ T cells were quantified in the same samples by flow cytometry using an Attune instrument. EC50 and Dmax of each compound was determined by plotting the MFI and DMSO treated wells were used as control. Asterisks (*) indicate examples for which data represents an average of n≥3 repeat experiments.
Target sequence in this assay (Q9UKS7 whole entry): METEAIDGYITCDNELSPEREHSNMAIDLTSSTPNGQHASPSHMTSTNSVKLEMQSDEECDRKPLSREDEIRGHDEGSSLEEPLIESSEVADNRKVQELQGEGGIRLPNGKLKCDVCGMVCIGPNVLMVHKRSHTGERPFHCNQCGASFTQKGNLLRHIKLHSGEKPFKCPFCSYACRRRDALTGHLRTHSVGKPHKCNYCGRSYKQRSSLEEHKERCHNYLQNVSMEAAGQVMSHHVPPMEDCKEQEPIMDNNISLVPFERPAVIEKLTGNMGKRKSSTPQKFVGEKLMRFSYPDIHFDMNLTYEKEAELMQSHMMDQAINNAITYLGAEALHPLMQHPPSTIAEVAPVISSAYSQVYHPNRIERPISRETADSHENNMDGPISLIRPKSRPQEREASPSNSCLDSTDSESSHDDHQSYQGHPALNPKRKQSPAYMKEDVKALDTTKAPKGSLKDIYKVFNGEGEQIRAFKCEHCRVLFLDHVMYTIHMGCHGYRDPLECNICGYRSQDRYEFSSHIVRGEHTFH
Target sequence in this assay (Q96SW2 whole entry): as the sequence (Q96SW2 whole entry) above
Target sequence in this assay (Q16531 whole entry partner): as the sequence (Q16531 whole entry partner) above

IKZF2 [2] = biological target: T2, IKZF2; assay: HEK293 HiBiT in vitro degradation of IKZF2; set-up: expressed in transfected cells; details: for Dmax: HEK293, HEK293 HiBiT; for Dmax / IKZF2 Dmax: maximum degradation at the highest concentration tested; for DC50 / IKZF2 Dmax: HEK293 HiBiT; for DC50: 18-24 hr incubation, normalized to DMSO control, read-out: IKZF2 EC50
In short: as §1
Target sequence in this assay (Q9UKS7 1-500 isoform Q9UKS7-2): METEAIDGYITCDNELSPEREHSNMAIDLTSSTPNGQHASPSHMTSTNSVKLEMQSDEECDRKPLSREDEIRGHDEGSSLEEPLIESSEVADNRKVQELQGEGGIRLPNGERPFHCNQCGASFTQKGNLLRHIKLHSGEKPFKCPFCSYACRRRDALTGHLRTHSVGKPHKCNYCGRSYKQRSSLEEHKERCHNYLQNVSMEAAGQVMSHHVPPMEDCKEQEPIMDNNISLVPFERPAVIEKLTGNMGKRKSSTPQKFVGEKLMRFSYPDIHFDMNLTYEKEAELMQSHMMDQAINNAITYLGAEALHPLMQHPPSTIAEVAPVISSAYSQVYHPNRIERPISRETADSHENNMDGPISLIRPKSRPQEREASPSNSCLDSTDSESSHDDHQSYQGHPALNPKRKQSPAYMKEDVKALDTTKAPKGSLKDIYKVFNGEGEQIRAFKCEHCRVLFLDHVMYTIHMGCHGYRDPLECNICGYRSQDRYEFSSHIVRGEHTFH
Target sequence in this assay (Q96SW2 whole entry): as the sequence (Q96SW2 whole entry) above
Target sequence in this assay (Q16531 whole entry partner): as the sequence (Q16531 whole entry partner) above

| Compound | Dmax (IKZF1) [%] | DC50 (IKZF1) [nM] | Dmax (IKZF2 [1]) [%] | DC50 (IKZF2 [1]) [nM] | Dmax (IKZF2 [2]) [%] | DC50 (IKZF2 [2]) [nM] | IKZF1 Dmax (IKZF1) [%] | IKZF2 Dmax (IKZF2 [2]) [%] | IKZF2 Dmax (IKZF2 [1]) [%] |
| --- | --- | --- | --- | --- | --- | --- | --- | --- | --- |
| CC(C)(C)CCN[C@H]1CCCC[C@@H]1Cc1ccc2c(c1)CN(C1CCC(=O)NC1=O)C2=O (stereo partly drawn) [Example 56, 3-(5-(((1R,2S)-2-((3,3-dimethylbutyl)amino)cyclohexyl)methyl)-1-oxoisoindolin-2-yl)piperidine-2,6-dione] | 44 | 68 | 97 | 8 | 96 | 14 | – | – | – |
| CC(N[C@H]1CCCC[C@@H]1Cc1ccc2c(c1)CN(C1CCC(=O)NC1=O)C2=O)C12CC(C1)C2 (stereo partly drawn) [Example 138] | – | > 1000 | 96 | 3 | 98 | 4 | – | – | – |
| CC1(C)CC(N[C@H]2CCCC[C@@H]2Cc2ccc3c(c2)CN(C2CCC(=O)NC2=O)C3=O)CC(C)(C)O1 (stereo partly drawn) [Example 208] | 26 | 76 | 97 | 3 | 98 | 2 | – | – | – |
| O=C1CCC(N2Cc3cc(C[C@H]4CCCC[C@@H]4NC4CCC(OC(F)(F)F)CC4)ccc3C2=O)C(=O)N1 (single isomer, unassigned) [Example 145] | 44 | 55 | 100 | 4 | 96 | 2 | – | – | – |
| CC(C)N[C@H]1CCCC[C@@H]1Cc1ccc2c(c1)CN(C1CCC(=O)NC1=O)C2=O (stereo partly drawn) [Example 7, 3-(5-(((1R,2S)-2-(isopropylamino)cyclohexyl)methyl)-1-oxoisoindolin-2-yl)piperidine-2,6-dione] | 36 | 462 | 98 | 2 | 99 | 4 | – | – | – |
| CC(C)(C)CCN[C@H]1CCCC[C@@H]1Cc1ccc2c(c1F)CN(C1CCC(=O)NC1=O)C2=O (stereo partly drawn) [Example 89, 3-(5-(((1R,2S)-2-((3,3-dimethylbutyl)amino)cyclohexyl)methyl)-4-fluoro-1-oxoisoindolin-2-yl)piperidine-2,6-dione] | 28 | 64 | 97 | 5 | 97 | 6 | – | – | – |
| COC1CCC(N[C@H]2CCCC[C@@H]2Cc2ccc3c(c2)CN(C2CCC(=O)NC2=O)C3=O)CC1 (single isomer, unassigned) [Example 277] | 37 | 114 | 95 | 2 | 98 | 3 | – | – | – |
| CN(C1CCC(F)(F)CC1)[C@H]1CCCC[C@@H]1Cc1ccc2c(c1F)CN(C1CCC(=O)NC1=O)C2=O (stereo partly drawn) [Example 124] | – | > 10000 | 91 | 23 | 94 | 16 | – | – | – |
| O=C1CCC(N2Cc3cc(C[C@H]4CCCC[C@@H]4NC4CCC(C(F)(F)F)CC4)ccc3C2=O)C(=O)N1 (single isomer, unassigned) [Example 122] | – | 57 | 97 | 2 | – | 2 | 45 | 96 | – |
| O=C1CCC(N2Cc3cc(C[C@H]4CCCC[C@@H]4NC4CC5(CCC(F)(F)CC5)C4)ccc3C2=O)C(=O)N1 (stereo partly drawn) [Example 142] | 33 | 74 | 94 | 5 | 95 | 5 | – | – | – |
| O=C1CCC(N2Cc3c(ccc(C[C@H]4CCCC[C@@H]4NCC4CCOCC4)c3F)C2=O)C(=O)N1 (stereo partly drawn) [Example 115] | 37 | 78 | 90 | 6 | 96 | 8 | – | – | – |
| CC1(C)CC(N[C@H]2CCCC[C@@H]2Cc2ccc3c(c2)CN(C2CCC(=O)NC2=O)C3=O)CCO1 (stereo partly drawn) [Example 109] | 34 | 103 | 97 | 1 | 96 | 5 | – | – | – |
| O=C1CCC(N2Cc3cc(C[C@H]4CCCC[C@@H]4NC4CC5(C4)CC(F)(F)C5)ccc3C2=O)C(=O)N1 (stereo partly drawn) [Example 101] | 32 | 39 | 95 | 6 | 98 | 5 | – | – | – |
| [2H]C1(N[C@H]2CCCC[C@@H]2Cc2ccc3c(c2)CN(C2CCC(=O)NC2=O)C3=O)CC(C)(C)C1 (stereo partly drawn) [Example 214] | 22 | 65 | 98 | 3 | 96 | 5 | – | – | – |
| O=C1CCC(N2Cc3cc(C[C@H]4CCCC[C@@H]4NCC45CC(C4)C5)ccc3C2=O)C(=O)N1 (stereo partly drawn) [Example 63] | – | > 1000 | 91 | 19 | 89 | 19 | – | – | – |
| O=C1CCC(N2Cc3cc(C[C@H]4CCCC[C@@H]4NC4CCC5(CC5)C4)ccc3C2=O)C(=O)N1 (single isomer, unassigned) [Example 281] | 30 | 43 | 98 | 5 | 96 | 2 | – | – | – |
| CC(N[C@H]1CCCC[C@@H]1Cc1ccc2c(c1)CN(C1CCC(=O)NC1=O)C2=O)C1CC(F)(F)C1 (single isomer, unassigned) [Example 137] | 34 | 54 | – | 2 | – | 1 | – | 97 | 99 |
| CC1(C)CC(N[C@H]2CCCO[C@@H]2Cc2ccc3c(c2F)CN(C2CCC(=O)NC2=O)C3=O)CCO1 (stereo partly drawn) [Example 222] | – | > 1000 | 95 | 6 | 96 | 18 | – | – | – |
| COCC1CCC(N[C@H]2CCCC[C@@H]2Cc2ccc3c(c2)CN(C2CCC(=O)NC2=O)C3=O)CC1 (single isomer, unassigned) [Example 252] | – | 105 | – | 1 | – | 3 | 31 | 98 | 97 |
| CC(C)CCN[C@H]1CCCC[C@@H]1Cc1ccc2c(c1)CN(C1CCC(=O)NC1=O)C2=O (stereo partly drawn) [Example 129] | 25 | 93 | 91 | 9 | 95 | 13 | – | – | – |
| CC1(C)CC(N[C@H]2CCCO[C@@H]2Cc2ccc3c(c2F)CN(C2CCC(=O)NC2=O)C3=O)CCO1 (stereo partly drawn) [Example 223] | – | > 1000 | – | 3 | – | 12 | – | 96 | 95 |
| CC(CC(C)(C)C)N[C@H]1CCCC[C@@H]1Cc1ccc2c(c1)CN(C1CCC(=O)NC1=O)C2=O (stereo partly drawn) [Example 221] | – | > 1000 | – | 4 | – | 2 | – | 98 | 101 |
| O=C1CCC(N2Cc3cc(C[C@H]4CCCC[C@@H]4NC4CC5CC5C4)ccc3C2=O)C(=O)N1 (single isomer, unassigned) [Example 266] | 32 | 55 | 98 | 6 | 97 | 4 | – | – | – |
| O=C1CCC(N2Cc3cc(C[C@H]4CCCC[C@@H]4NC4CC5(CC5)C4)ccc3C2=O)C(=O)N1 (stereo partly drawn) [Example 79, 3-(1-oxo-5-(((1R,2S)-2-(spiro[2.3]hexan-5-ylamino)cyclohexyl)methyl)isoindolin-2-yl)piperidine-2,6-dione] | 33 | 98 | 93 | 5 | 94 | 5 | – | – | – |
